Positions count from the first letter of the chain named. Non-standard residues stand in square brackets, D forms with d. Residues, ends and D or L forms follow the SMILES beside them. Nle = CCCC[C@H](N)C(=O)O; βAla = NCCC(=O)O
Assays:
[1] = molecular target: T1, Rat BRS-3/AMH (RB3-AMH) (Rattus norvegicus, UniProt Q8K418, D306A/P308H/V307M); assay: Calcium mobilization assay (FLIPR), substitution mutant; type: cell-based
T1 construct: expressed in transfected cells; host or cells: 293EBNA cells, pE3 expression vector
T1 sequence (Q8K418 1-399 D306A/V307M/P308H): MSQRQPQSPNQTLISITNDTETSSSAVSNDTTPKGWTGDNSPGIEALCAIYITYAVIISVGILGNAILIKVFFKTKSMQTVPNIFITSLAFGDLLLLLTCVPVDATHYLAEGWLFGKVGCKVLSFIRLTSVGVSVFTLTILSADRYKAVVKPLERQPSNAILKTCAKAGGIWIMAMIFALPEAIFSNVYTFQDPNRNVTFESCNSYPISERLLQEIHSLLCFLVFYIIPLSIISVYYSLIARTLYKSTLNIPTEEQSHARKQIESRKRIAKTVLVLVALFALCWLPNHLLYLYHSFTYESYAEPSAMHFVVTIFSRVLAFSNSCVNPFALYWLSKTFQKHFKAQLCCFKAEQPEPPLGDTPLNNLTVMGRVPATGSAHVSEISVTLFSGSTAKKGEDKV
Text: (§1) Chimeric rat/human BRS-3 genes and substitution mutant rat BRS-3 genes were constructed by using PCR mutagenesis techniques (Fong, T. in Structure-function analysis of G protein coupled receptors, J, Wess, ed, Wiley-Liss, pp. 1-20, (1999)). All the mutant and wild type BRS-3 genes were cloned into pE3 expression vector which contains CMV early promoter, hygromycin-resistance gene and OriP segment from Epstein-Bar virus.
(§2) The functional activity of rat BRS-3 was also studied by measuring the agonist-induced calcium mobilization response using a Fluorescence Imaging Plate Reader (Molecular Devices, Sunnyvale, Calif.). Transfected 293EBNA cells were plated onto poly-D-lysine coated 96-well plates with black wall and clear bottom (Becton Dickinson, Franklin Lakes, N.J.). After 16-48 hr culture, the cells were loaded with 4 uM Fluo-3-AM fluorescent calcium-indicator dye (Molecular Probes, Eugene, OR) in assay buffer (Hank's balanced salts solution, 10 mM HEPES, pH7.4, 0.1% bovine serum albumin, 2.5 mM probenecid).
The changes in intracellular calcium concentration, as indicated by Fluo-3 fluorescence, were immediately measured by FLIPR. Maximal changes in fluorescence over base line were used to determine agonist response.
(§3) The EC50 values were mean±S.E. calculated from dose-response curves of 3-5 repeated experiments using FLIPR assays.
To determine which amino acids in the E3 loop of human BRS-3 conferred dYB activity upon rat BRS-3, several substitution BRS-3 mutants were made in which the amino acids in the E3 loop of rat BRS-3 were substituted with residues that match human BRS-3.

[2] = molecular target: T2, rat BRS-3 (Rattus norvegicus, UniProt Q8K418); assay: Phosphatidylinositol hydrolysis functional assay; type: cell-based
T2 construct: utilized to PCR amplify full-length rat BRS-3 cDNA; expressed in transfected cells; host or cells: 293EBNA cells, pE3 expression vector
T2 sequence (Q8K418 1-399): T1 sequence (Q8K418 1-399 D306A/V307M/P308H) with A306D, M307V, H308P
Protocol: Wild type and mutant BRS-3 constructs were transfected by using lipofectamine reagents (Life Technologies, Rockville, Md.) into 293EBNA cells (Invitrogen, Carlsbad, Calif.) which support episomal replication of plasmid containing Epstein Bar virus OriP segment. Stable cell lines were obtained by selection with 250 ug/ml hygromycin. The cells were maintained as monolayers in Dulbecco's modified Eagle's medium (Life Technologies, Rockville, Md.) supplemented with 10% fetal bovine serum and incubated at 37° C. in a humidified 5% CO2 incubator.
The functional properties of rat BRS-3 were characterized in transfected 293EBNA cells. The transfected 293EBNA cells were plated onto poly-D-lysine coated 12-well plates and incubated in the medium containing 2 uCi/ml [^3H]myo-inositol. The cells were labeled for 48 hrs, and subsequently incubated for 30 minutes in Hank's balanced salt solution containing 10 mM HEPES, 0.1% BSA and 10 mM LiCl.
Since a natural agonist of BRS-3 has not been found, members of the bombesin-like peptide family, including GRP, NMB, bombesin and dYB, were used to stimulate the transfected cells described above, in the same buffer, for 1 hr at 37° C. The reaction was stopped by removal of medium and addition of 10 mM formic acid. The inositol monophosphate fraction was then isolated by anion chromatography as described (Berridge et al. Biochem. J. 212: 473-482 (1983), which is hereby incorporated by reference).

[3] = molecular target: T3, Rat BRS-3/E2 (RB3-E2) (Rattus norvegicus, UniProt Q8K418, E210K/I208V/N204T/Q192R/R196K/R211K/V198M); assay: Calcium mobilization assay (FLIPR), chimeric receptor; type: cell-based, rat/human
T3 construct: expressed in transfected cells; host or cells: 293EBNA cells, pE3 expression vector
T3 sequence (Q8K418 1-399 Q192R/R196K/V198M/N204T/I208V/E210K/R211K): T1 sequence (Q8K418 1-399 D306A/V307M/P308H) with Q192R, R196K, V198M, N204T, I208V, E210K, R211K, A306D, M307V, H308P
Text: as §1, §2
The changes in intracellular calcium concentration, as indicated by Fluo-3 fluorescence, were immediately measured by FLIPR. Maximal changes in fluorescence over base line were used to determine agonist response. […]
as §3

Row | SMILES | improvement of dYB potency in calcium mobilization ([1]; RB3-AMH vs rat BRS-3) [fold] | increase in PI hydrolysis [2] [fold] | stimulation of phosphatidylinositol (PI) hydrolysis (inositol monophosphate production) [2] | EC50 [1] [nM] | EC50 [3] [nM]
1 | CCCC[C@H](NC(=O)[C@H](Cc1ccccc1)NC(=O)[C@H](Cc1c[nH]cn1)NC(=O)CCNC(=O)[C@@H](NC(=O)[C@H](C)NC(=O)[C@H](Cc1c[nH]c2ccccc12)NC(=O)[C@H](CCC(N)=O)NC(=O)[C@H](N)Cc1ccc(O)cc1)C(C)C)C(N)=O [dYB, [D-Tyr6-betaAla11-Phe13-Nle14] bombesin (6-14)] (H-[dY]QWAV[βAla]HF[Nle]-NH2) | 6 | 9 | significant increase |  | 
2 | CCCC[C@H](NC(=O)[C@H](Cc1ccccc1)NC(=O)[C@H](Cc1cnc[nH]1)NC(=O)CCNC(=O)[C@@H](NC(=O)[C@H](C)NC(=O)[C@H](Cc1c[nH]c2ccccc12)NC(=O)[C@H](CCC(N)=O)NC(=O)[C@H](N)Cc1ccc(O)cc1)C(C)C)C(N)=O [dYB, [D-Tyr6-betaAla11-Phe13-Nle14] bombesin (6-14)] (H-[dY]QWAV[βAla]HF[Nle]-NH2) |  |  |  | 370 ± 70 | 990 ± 140

From patent US20050222402A1, “Dna encoding rat bombesin receptor subtype-3 (brs-3) and uses thereof” (priority 2001, published 2005)
